Test results reported in PMC10994248 (The Oncologist, 2024).

Assay: Phase I safety and tolerability (TEAEs, DLTs, MTD, DRDE) in patients with advanced solid tumors
Type: in vivo, human
Experimental: This 2-part, open-label, phase I study was conducted at the MD Anderson Cancer Center in Texas, USA and the Cancer Hospital Chinese Academy of Medical Sciences in Beijing, China. […] This was followed by a dose-expansion phase, the primary objective of which was to confirm the safety and tolerability of tinengotinib at the DRDE. Secondary objectives were to characterize the pharmacokinetics and preliminary efficacy of tinengotinib.
Dose escalation was guided by an adaptive Bayesian logistic regression model using the Escalation with Overdose Control principle.[6],[7] Study data (including DLTs, grade 2 adverse events during cycle 1, and pharmacokinetic data) were reviewed by the sponsor and trial investigators at each dose level and used to guide dose-escalation decisions. MTD was based on the Bayesian model, but with consideration given to available safety and tolerability data. DRDE was based on an evaluation of all available data (safety, clinical activity, and pharmacokinetics).
After determination of the DRDE, the dose-expansion phase was opened to further characterize safety and pharmacokinetics, and to assess preliminary efficacy.
Routine safety assessments of adverse events, laboratory tests (hematology, coagulation, biochemistry, and urinalysis), vital signs, and 12-lead electrocardiograms were performed. Adverse events were graded according to the National Cancer Institute Common Terminology Criteria for Adverse Events (CTCAE), version 5.0.

[1] = dose escalation (n = 40), any grade
[2] = dose escalation (n = 40), grade ≥3
[3] = dose expansion (12 mg, n = 8), any grade
[4] = dose expansion (12 mg, n = 8), grade ≥3

## tinengotinib
Dose escalation 12 mg (n=12)
  Patients with study drug-related TEAE leading to study drug permanent discontinuation: 1 (8.3) n (%)
  Patients with study drug-related grade ≥3 TEAE: 6 (50.0) n (%)
  Patients with study drug-related treatment-emergent SAE: 0 n (%)
  Patients with treatment-emergent SAE: 5 (41.7) n (%)
Dose escalation 15 mg (n=6)
  Patients with AE: 6 (100) n (%)
  Patients with TEAE: 6 (100) n (%)
  Patients with TEAE leading to death: 0 n (%)
  Patients with TEAE leading to dose adjustment/temporary interruption: 4 (66.7) n (%)
  Patients with TEAE leading to study drug permanent discontinuation: 3 (50.0) n (%)
  Patients with grade ≥3 TEAE: 5 (83.3) n (%)
  Patients with study drug-related TEAE: 5 (83.3) n (%)
  Patients with study drug-related TEAE leading to dose adjustment/temporary interruption: 3 (50.0) n (%)
  Patients with study drug-related TEAE leading to study drug permanent discontinuation: 0 n (%)
  Patients with study drug-related grade ≥3 TEAE: 3 (50.0) n (%)
  Patients with study drug-related treatment-emergent SAE: 1 (16.7) n (%)
  Patients with treatment-emergent SAE: 4 (66.7) n (%)
[1]
  Study drug-related TEAE: 33 (82.5) No. (%)
  Study drug-related TEAE: Alanine aminotransferase increased: 4 (10.0) No. (%)
  Study drug-related TEAE: Aspartate aminotransferase increased: 4 (10.0) No. (%)
  Study drug-related TEAE: Blood thyroid-stimulating hormone increased: 4 (10.0) No. (%)
  Study drug-related TEAE: Decreased appetite: 5 (12.5) No. (%)
  Study drug-related TEAE: Diarrhea: 15 (37.5) No. (%)
  Study drug-related TEAE: Dry mouth: 5 (12.5) No. (%)
  Study drug-related TEAE: Hypertension: 19 (47.5) No. (%)
  Study drug-related TEAE: Myalgia: 5 (12.5) No. (%)
  Study drug-related TEAE: Nausea: 11 (27.5) No. (%)
  Study drug-related TEAE: Palmar-plantar erythrodysesthesia syndrome: 10 (25.0) No. (%)
  Study drug-related TEAE: Proteinuria: 6 (15.0) No. (%)
  Study drug-related TEAE: Stomatitis: 9 (22.5) No. (%)
  Study drug-related TEAE: Vomiting: 10 (25.0) No. (%)
  Study drug-related serious TEAE: 5 (12.5) No. (%)
[2]
  Study drug-related TEAE: 16 (40.0) No. (%)
  Study drug-related TEAE: Alanine aminotransferase increased: 0 No. (%)
  Study drug-related TEAE: Aspartate aminotransferase increased: 0 No. (%)
  Study drug-related TEAE: Blood thyroid-stimulating hormone increased: 0 No. (%)
  Study drug-related TEAE: Decreased appetite: 0 No. (%)
  Study drug-related TEAE: Diarrhea: 1 (2.5) No. (%)
  Study drug-related TEAE: Dry mouth: 0 No. (%)
  Study drug-related TEAE: Hypertension: 9 (22.5) No. (%)
  Study drug-related TEAE: Myalgia: 0 No. (%)
  Study drug-related TEAE: Nausea: 1 (2.5) No. (%)
  Study drug-related TEAE: Palmar-plantar erythrodysesthesia syndrome: 1 (2.5) No. (%)
  Study drug-related TEAE: Proteinuria: 0 No. (%)
  Study drug-related TEAE: Stomatitis: 2 (5.0) No. (%)
  Study drug-related TEAE: Vomiting: 0 No. (%)
  Study drug-related serious TEAE: 0 No. (%)
Dose escalation total (n=40)
  Patients with AE: 39 (97.5) n (%)
  Patients with TEAE: 39 (97.5) n (%)
  Patients with TEAE leading to death: 0 n (%)
  Patients with TEAE leading to dose adjustment/temporary interruption: 24 (60.0) n (%)
  Patients with TEAE leading to study drug permanent discontinuation: 12 (30.0) n (%)
  Patients with grade ≥3 TEAE: 26 (65.0) n (%)
  Patients with study drug-related TEAE: 33 (82.5) n (%)
  Patients with study drug-related TEAE leading to dose adjustment/temporary interruption: 18 (45.0) n (%)
  Patients with study drug-related TEAE leading to study drug permanent discontinuation: 6 (15.0) n (%)
  Patients with study drug-related grade ≥3 TEAE: 16 (40.0) n (%)
  Patients with study drug-related treatment-emergent SAE: 5 (12.5) n (%)
  Patients with treatment-emergent SAE: 18 (45.0) n (%)
Dose expansion 12 mg (n=8)
  Patients with AE: 8 (100) n (%)
  Patients with TEAE: 8 (100) n (%)
  Patients with TEAE leading to death: 0 n (%)
  Patients with TEAE leading to dose adjustment/temporary interruption: 7 (87.5) n (%)
  Patients with TEAE leading to study drug permanent discontinuation: 0 n (%)
  Patients with grade ≥3 TEAE: 5 (62.5) n (%)
  Patients with study drug-related TEAE: 8 (100) n (%)
  Patients with study drug-related TEAE leading to dose adjustment/temporary interruption: 7 (87.5) n (%)
  Patients with study drug-related TEAE leading to study drug permanent discontinuation: 0 n (%)
  Patients with study drug-related grade ≥3 TEAE: 5 (62.5) n (%)
  Patients with study drug-related treatment-emergent SAE: 3 (37.5) n (%)
  Patients with treatment-emergent SAE: 4 (50.0) n (%)
[3]
  Study drug-related TEAE: 8 (100) No. (%)
  Study drug-related TEAE: Alanine aminotransferase increased: 1 (12.5) No. (%)
  Study drug-related TEAE: Aspartate aminotransferase increased: 1 (12.5) No. (%)
  Study drug-related TEAE: Blood thyroid-stimulating hormone increased: 3 (37.5) No. (%)
  Study drug-related TEAE: Decreased appetite: 2 (25.0) No. (%)
  Study drug-related TEAE: Diarrhea: 1 (12.5) No. (%)
  Study drug-related TEAE: Dry mouth: 0 No. (%)
  Study drug-related TEAE: Hypertension: 5 (62.5) No. (%)
  Study drug-related TEAE: Myalgia: 0 No. (%)
  Study drug-related TEAE: Nausea: 0 No. (%)
  Study drug-related TEAE: Palmar-plantar erythrodysesthesia syndrome: 4 (50.0) No. (%)
  Study drug-related TEAE: Proteinuria: 0 No. (%)
  Study drug-related TEAE: Stomatitis: 5 (62.5) No. (%)
  Study drug-related TEAE: Vomiting: 0 No. (%)
[4]
  Study drug-related TEAE: 5 (62.5) No. (%)
  Study drug-related TEAE: Alanine aminotransferase increased: 0 No. (%)
  Study drug-related TEAE: Aspartate aminotransferase increased: 0 No. (%)
  Study drug-related TEAE: Blood thyroid-stimulating hormone increased: 0 No. (%)
  Study drug-related TEAE: Decreased appetite: 0 No. (%)
  Study drug-related TEAE: Diarrhea: 0 No. (%)
  Study drug-related TEAE: Dry mouth: 0 No. (%)
  Study drug-related TEAE: Hypertension: 4 (50.0) No. (%)
  Study drug-related TEAE: Myalgia: 0 No. (%)
  Study drug-related TEAE: Nausea: 0 No. (%)
  Study drug-related TEAE: Palmar-plantar erythrodysesthesia syndrome: 0 No. (%)
  Study drug-related TEAE: Proteinuria: 0 No. (%)
  Study drug-related TEAE: Stomatitis: 0 No. (%)
  Study drug-related TEAE: Vomiting: 0 No. (%)
  Study drug-related serious TEAE: 0 No. (%)
Orally once daily, 28-day cycle
  Dose recommended for dose expansion (DRDE): 12 mg
Total (n = 48), any grade
  Study drug-related TEAE: 41 (85.4) No. (%)
  Study drug-related TEAE: Alanine aminotransferase increased: 5 (10.4) No. (%)
  Study drug-related TEAE: Aspartate aminotransferase increased: 5 (10.4) No. (%)
  Study drug-related TEAE: Blood thyroid-stimulating hormone increased: 7 (14.6) No. (%)
  Study drug-related TEAE: Decreased appetite: 7 (14.6) No. (%)
  Study drug-related TEAE: Diarrhea: 16 (33.3) No. (%)
  Study drug-related TEAE: Dry mouth: 5 (10.4) No. (%)
  Study drug-related TEAE: Hypertension: 24 (50.0) No. (%)
  Study drug-related TEAE: Myalgia: 5 (10.4) No. (%)
  Study drug-related TEAE: Nausea: 11 (22.9) No. (%)
  Study drug-related TEAE: Palmar-plantar erythrodysesthesia syndrome: 14 (29.2) No. (%)
  Study drug-related TEAE: Proteinuria: 6 (12.5) No. (%)
  Study drug-related TEAE: Stomatitis: 14 (29.2) No. (%)
  Study drug-related TEAE: Vomiting: 10 (20.8) No. (%)
Total (n = 48), grade ≥3
  Study drug-related TEAE: 21 (43.8) No. (%)
  Study drug-related TEAE: Alanine aminotransferase increased: 0 No. (%)
  Study drug-related TEAE: Aspartate aminotransferase increased: 0 No. (%)
  Study drug-related TEAE: Blood thyroid-stimulating hormone increased: 0 No. (%)
  Study drug-related TEAE: Decreased appetite: 0 No. (%)
  Study drug-related TEAE: Diarrhea: 1 (2.1) No. (%)
  Study drug-related TEAE: Dry mouth: 0 No. (%)
  Study drug-related TEAE: Hypertension: 13 (27.1) No. (%)
  Study drug-related TEAE: Myalgia: 0 No. (%)
  Study drug-related TEAE: Nausea: 1 (2.1) No. (%)
  Study drug-related TEAE: Palmar-plantar erythrodysesthesia syndrome: 1 (2.1) No. (%)
  Study drug-related TEAE: Proteinuria: 0 No. (%)
  Study drug-related TEAE: Stomatitis: 2 (4.2) No. (%)
  Study drug-related TEAE: Vomiting: 0 No. (%)
  Study drug-related serious TEAE: 0 No. (%)
Total (n=48)
  Patients with AE: 47 (97.9) n (%)
  Patients with TEAE: 47 (97.9) n (%)
  Patients with TEAE leading to death: 0 n (%)
  Patients with TEAE leading to dose adjustment/temporary interruption: 31 (64.6) n (%)
  Patients with TEAE leading to study drug permanent discontinuation: 12 (25.0) n (%)
  Patients with grade ≥3 TEAE: 31 (64.6) n (%)
  Patients with study drug-related TEAE: 41 (85.4) n (%)
  Patients with study drug-related TEAE leading to dose adjustment/temporary interruption: 25 (52.1) n (%)
  Patients with study drug-related TEAE leading to study drug permanent discontinuation: 6 (12.5) n (%)
  Patients with study drug-related grade ≥3 TEAE: 21 (43.8) n (%)
  Patients with study drug-related treatment-emergent SAE: 8 (16.7) n (%)
  Patients with treatment-emergent SAE: 22 (45.8) n (%)
